What all share (test): SelectScreen Kinase Profiling, single point inhibition and IC50 for off-target kinases
Format in all cases: biochemical

In test [1] the target is off-target kinases (Homo sapiens, UniProt P30291). The following applies: WEE1, LanthaScreen Binding. Background: TR-FRET usually uses a lanthanide donor and a delayed reading to cut background.
In test [2] the target is T1, off-target kinases (Homo sapiens, UniProt P52333).
T1 sequence (P52333 1-1124): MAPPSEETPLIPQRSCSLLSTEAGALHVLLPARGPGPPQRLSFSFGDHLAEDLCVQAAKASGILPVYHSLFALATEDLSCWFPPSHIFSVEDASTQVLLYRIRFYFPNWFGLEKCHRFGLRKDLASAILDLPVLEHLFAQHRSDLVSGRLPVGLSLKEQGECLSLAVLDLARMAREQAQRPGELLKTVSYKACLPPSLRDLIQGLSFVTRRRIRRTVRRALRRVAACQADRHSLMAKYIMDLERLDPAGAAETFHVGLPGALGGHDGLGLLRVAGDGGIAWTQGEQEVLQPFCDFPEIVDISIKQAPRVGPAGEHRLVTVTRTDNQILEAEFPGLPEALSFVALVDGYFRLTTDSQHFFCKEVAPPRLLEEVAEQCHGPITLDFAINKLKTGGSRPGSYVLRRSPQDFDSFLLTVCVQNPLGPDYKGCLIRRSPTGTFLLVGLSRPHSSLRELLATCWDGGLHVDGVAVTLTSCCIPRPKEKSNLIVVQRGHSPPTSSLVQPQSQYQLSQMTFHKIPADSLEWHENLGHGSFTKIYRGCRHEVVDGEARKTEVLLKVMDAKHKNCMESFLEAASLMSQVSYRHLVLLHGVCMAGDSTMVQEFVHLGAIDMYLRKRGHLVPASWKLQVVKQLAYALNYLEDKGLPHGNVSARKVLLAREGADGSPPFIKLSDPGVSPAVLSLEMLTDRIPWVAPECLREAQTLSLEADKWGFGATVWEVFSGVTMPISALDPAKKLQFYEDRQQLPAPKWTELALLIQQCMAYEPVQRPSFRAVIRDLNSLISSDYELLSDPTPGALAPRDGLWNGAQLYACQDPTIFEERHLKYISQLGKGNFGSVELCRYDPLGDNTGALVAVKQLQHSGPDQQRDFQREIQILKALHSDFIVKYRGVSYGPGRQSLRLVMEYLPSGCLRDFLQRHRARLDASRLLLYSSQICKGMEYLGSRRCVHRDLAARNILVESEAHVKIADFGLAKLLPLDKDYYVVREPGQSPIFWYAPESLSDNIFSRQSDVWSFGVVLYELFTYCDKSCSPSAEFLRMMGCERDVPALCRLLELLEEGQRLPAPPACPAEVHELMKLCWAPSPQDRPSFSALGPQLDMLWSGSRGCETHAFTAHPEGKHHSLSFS
To be noted: JAK3, ATP Km app, ZLYTE.

Test [3] has as its target off-target kinases (Homo sapiens, UniProt Q96RR4). The following applies: CAMKK2 (CaMKK beta), LanthaScreen Binding.
Test [4] concerns the target T2, off-target kinases (Homo sapiens, UniProt Q9BXA7).
T2 sequence (Q9BXA7 1-367): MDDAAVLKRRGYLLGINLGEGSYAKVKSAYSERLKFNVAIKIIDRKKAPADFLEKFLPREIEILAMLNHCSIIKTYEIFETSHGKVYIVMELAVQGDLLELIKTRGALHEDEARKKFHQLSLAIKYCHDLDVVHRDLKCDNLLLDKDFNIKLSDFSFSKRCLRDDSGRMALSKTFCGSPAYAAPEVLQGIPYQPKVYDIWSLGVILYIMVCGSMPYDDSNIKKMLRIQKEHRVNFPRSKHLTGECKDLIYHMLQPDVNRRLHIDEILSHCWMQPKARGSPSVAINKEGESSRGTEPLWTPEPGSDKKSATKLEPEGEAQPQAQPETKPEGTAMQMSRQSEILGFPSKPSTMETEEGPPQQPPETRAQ
To be noted: STK22D (TSSK1), ATP Km app, ZLYTE.

Like-named read-outs stand apart in the source and are kept apart here.

From patent publication US11572590B2, “Methods for evaluating tumor cell spheroids using 3D microfluidic cell culture device” (Dana-Farber Cancer Institute, Inc., priority 2017, dated 2023) come the findings set out here.

Sequence of off-target kinases (Homo sapiens, UniProt Q96RR4) (Q96RR4 whole entry): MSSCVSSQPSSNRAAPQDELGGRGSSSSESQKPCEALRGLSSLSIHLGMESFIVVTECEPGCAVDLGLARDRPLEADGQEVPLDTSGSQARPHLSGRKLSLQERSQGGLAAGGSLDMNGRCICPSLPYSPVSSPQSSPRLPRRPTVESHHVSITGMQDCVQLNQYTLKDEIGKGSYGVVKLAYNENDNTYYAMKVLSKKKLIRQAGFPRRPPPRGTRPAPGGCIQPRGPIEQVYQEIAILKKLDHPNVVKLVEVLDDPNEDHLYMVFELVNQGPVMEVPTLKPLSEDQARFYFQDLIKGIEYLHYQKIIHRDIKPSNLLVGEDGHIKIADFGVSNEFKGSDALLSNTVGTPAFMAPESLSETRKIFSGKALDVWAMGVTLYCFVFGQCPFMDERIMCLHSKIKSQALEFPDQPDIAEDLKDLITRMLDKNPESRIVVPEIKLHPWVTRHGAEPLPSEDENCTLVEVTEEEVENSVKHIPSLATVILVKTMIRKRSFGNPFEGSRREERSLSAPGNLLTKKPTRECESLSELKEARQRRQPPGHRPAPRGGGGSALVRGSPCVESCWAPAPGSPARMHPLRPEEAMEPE
Sequence of off-target kinases (Homo sapiens, UniProt P30291) (P30291 whole entry): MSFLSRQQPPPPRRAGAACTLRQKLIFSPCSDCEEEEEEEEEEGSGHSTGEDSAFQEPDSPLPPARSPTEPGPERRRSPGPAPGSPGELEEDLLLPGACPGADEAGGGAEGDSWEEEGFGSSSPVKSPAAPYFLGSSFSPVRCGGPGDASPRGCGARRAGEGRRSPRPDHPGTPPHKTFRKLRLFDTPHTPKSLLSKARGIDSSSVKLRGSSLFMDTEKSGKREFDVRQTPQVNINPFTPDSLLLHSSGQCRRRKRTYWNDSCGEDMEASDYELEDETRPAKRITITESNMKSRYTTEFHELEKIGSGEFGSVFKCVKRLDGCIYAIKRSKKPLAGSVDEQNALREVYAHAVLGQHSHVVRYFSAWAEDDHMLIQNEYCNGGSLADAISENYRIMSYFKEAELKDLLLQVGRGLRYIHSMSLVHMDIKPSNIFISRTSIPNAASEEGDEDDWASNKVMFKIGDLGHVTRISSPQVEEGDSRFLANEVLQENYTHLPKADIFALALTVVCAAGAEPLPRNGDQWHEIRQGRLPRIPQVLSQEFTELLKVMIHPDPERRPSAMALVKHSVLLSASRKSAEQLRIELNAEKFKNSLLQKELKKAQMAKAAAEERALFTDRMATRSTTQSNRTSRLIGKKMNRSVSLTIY

On to `N#Cc1cc(-c2ncnc(Nc3ccc(N4CCN(C5COC5)CC4)cc3)n2)ccc1OC1CCOCC1` [Compound 1, 5-(4-((4-(4-(oxetan-3-yl)piperazin-1-yl)phenyl)amino)-1,3,5-triazin-2-yl)-2-((tetrahydro-2H-pyran-4-yl)oxy)benzonitrile], for which the inhibition at off-target kinases [1] (read-out: % Inhibition 1) was 28%; at off-target kinases [1] (read-out: % Inhibition 2), 36%; at off-target kinases [1] (read-out: % Inhibition Avg), 32%; at off-target kinases [2] (read-out: % Inhibition 1), 73%; at off-target kinases [2] (read-out: % Inhibition 2) it was 73%; at off-target kinases [2] (read-out: % Inhibition Avg) it was 73%. Besides, the inhibition on off-target kinases [3] (read-out: % Inhibition 1) came to 7%; on off-target kinases [3] (read-out: % Inhibition 2), 9%; at off-target kinases [3] (read-out: % Inhibition Avg) it was 8%; at off-target kinases [4] (read-out: % Inhibition 1) it was 99%; at off-target kinases [4] (read-out: % Inhibition 2), 95%; on off-target kinases [4] (read-out: % Inhibition Avg) it was 97%.

One may read the inhibition as the drop in the measured response relative to a control, in per cent.
